Data as given in PMC9865890, “N-Derivatives of (Z)-Methyl 3-(4-Oxo-2-thioxothiazolidin-5-ylidene)methyl)-1H-indole-2-carboxylates as Antimicrobial Agents—In Silico and In Vitro Evaluation” (Pharmaceuticals, 2023).
In brackets after ≈: the same amount, converted by molar mass. Like-named read-outs stand apart in the source and are kept apart here.

Legend:
[1] = test system: Penicillium verrucosum var. cyclopium (food isolate); assay: Antifungal bioassay (MIC/MFC); assay type: cell-based
[2] = test system: Enterobacter cloacae (clinical isolate); assay: Antibacterial microdilution (MIC/MBC); assay type: cell-based; settings: En.cl (En. cloacae)
In short: (§1)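 Tested in a broth-type modified microdilution setup against each strain, giving paired MIC/MBC values.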

P. aeruginosa = assay: Antibacterial microdilution (MIC/MBC); assay type: cell-based; settings: P.a. (P. aeruginosa)
In short: as §1

M. flavus = assay: Antibacterial microdilution (MIC/MBC); assay type: cell-based; settings: Micrococcus flavus; M.f. (M. flavus)
In short: as §1

[3] = test system: Salmonella typhimurium (ATCC 13311); assay: Antibacterial microdilution (MIC/MBC); assay type: cell-based; settings: S.t. (S. typhimurium)
In short: as §1

[4] = test system: Bacillus cereus (clinical isolate); assay: Antibacterial microdilution (MIC/MBC); assay type: cell-based; settings: B.c. (B. cereus)
In short: as §1

[5] = test system: Listeria monocytogenes (NCTC 7973); assay: Antibacterial microdilution (MIC/MBC); assay type: cell-based; settings: Listeria monocytogenes, NCTC7973, L.m. (L. monocytogenes); for MIC: read-out: MIC
In short: as §1

[6] = test system: Escherichia coli (ATCC 35210); assay: Antibacterial microdilution (MIC/MBC); assay type: cell-based; settings: E. coli
In short: as §1

[7] = test system: Staphylococcus aureus (ATCC 6538); assay: Antibacterial microdilution (MIC/MBC); assay type: cell-based; settings: Staphylococcus aureus, ATCC6538, S.a. (S. aureus); for MIC: read-out: MIC
In short: as §1

A. ochraceus = assay: Antifungal bioassay (MIC/MFC); assay type: cell-based; settings: A.o. (A. ochraceus)
In short: (§2)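 Experiments were run twice for every fungus in the panel.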

[8] = test system: Trichoderma viride (IAM 5061); assay: Antifungal bioassay (MIC/MFC); assay type: cell-based; settings: T.v. (T. viride)
In short: as §2

[9] = test system: Penicillium funiculosum (ATCC 36839); assay: Antifungal bioassay (MIC/MFC); assay type: cell-based; settings: Talaromyces funiculosus, ATCC36839; P.f. (P. funiculosum)
In short: as §2

P. ochrochloron = assay: Antifungal bioassay (MIC/MFC); assay type: cell-based; settings: Penicillium ochrochloron; for MFC: P.o. (P. ochrochloron); for MIC: P.o. (P. ochrochloron; text: P. ochramensis), read-out: MIC
In short: as §2

[10] = test system: Aspergillus versicolor (ATCC 11730); assay: Antifungal bioassay (MIC/MFC); assay type: cell-based; settings: ATCC11730, A.v. (A. versicolor)
In short: as §2

[11] = test system: Aspergillus fumigatus (ATCC 1022); assay: Antifungal bioassay (MIC/MFC); assay type: cell-based; settings: ATCC1022, A.f. (A. fumigatus)
In short: as §2

[12] = test system: Aspergillus niger (ATCC 6275); assay: Antifungal bioassay (MIC/MFC); assay type: cell-based; settings: ATCC6275, A.n. (A. niger)
In short: as §2

in vitro = assay type: cell-based; settings: human
Experimental: To evaluate cytotoxicity, compounds 1, 2, 8, and 11 were chosen to be tested in the human normal fetal lung fibroblast MRC-5 cell line within the following range of three concentrations for each substance: 1 × 10^−7 M (0.1 μM), 1 × 10^−6 Μ (1 μM), and 1 × 10^−5 M (10 μΜ). […] More specifically, under this exposure to compound 11, the cellular viability was measured to the level of 91.0%.
The normal human fetal lung fibroblast MRC-5 cell line was maintained and used in our laboratory (Dr. I.s.Vizirianakis, Laboratory of Pharmacology, School of Pharmacy, Aristotle University of Thessaloniki, Greece) (passage 15 < 40), as previously published. Cells were grown in culture under the following conditions: 37 °C, humidified atmosphere containing 5% v/v CO2, in DMEM (Dulbecco’s modified Eagle Medium) enriched with 10% FBS and 1% PS. The compounds tested were dissolved in DMSO and stored at 4 °C. […] After the incubation, the OD for each well was determined at 450 nm in a multifunction microplate reader. […] Statistical t-test and one-way analysis of variance (ANOVA) were performed via the use of the SPSS program and the significance level was determined at p < 0.05.

[13] = Enterobacter cloacae, read-out: MIC
[14] = Pseudomonas aeruginosa, read-out: MIC
[15] = Salmonella enterica, read-out: MIC
[16] = Escherichia coli, ATCC35210, read-out: MIC
[17] = Aspergillus ochraceus, read-out: MIC
[18] = Trichoderma viride, IAM5061, read-out: MIC

Structure (SMILES): COC(=O)c1[nH]c2ccccc2c1/C=C1\SC(=S)N(CC(=O)O)C1=O [Compound 11, (Z)-2-(5-((2-(methoxycarbonyl)-1H-indol-3-yl)methylene)-4-oxo-2-thioxothiazolidin-3-yl)acetic acid]
- MFC [1]: 30 ± 10 µg/mL (≈ 79.7 µM)
- MIC [1]: 15 ± 3 µg/mL (≈ 39.8 µM)
- MIC [2]: 11 ± 10 µg/mL (≈ 29.2 µM)
- MBC ([2]; Enterobacter cloacae): 30 ± 10 µg/mL (≈ 79.7 µM)
- MIC [2, 13]: 11 µg/mL (≈ 29.2 µM)
- MIC (P. aeruginosa): 11 ± 10 µg/mL (≈ 29.2 µM)
- MBC (P. aeruginosa; Pseudomonas aeruginosa): 30 ± 10 µg/mL (≈ 79.7 µM)
- MIC (P. aeruginosa; [14]): 11 µg/mL (≈ 29.2 µM)
- MBC (M. flavus): 60 ± 6 µg/mL (≈ 159 µM)
- MIC (M. flavus): 30 ± 10 µg/mL (≈ 79.7 µM)
- MIC [3]: 15 ± 9 µg/mL (≈ 39.8 µM)
- MBC ([3]; Salmonella enterica): 30 ± 10 µg/mL (≈ 79.7 µM)
- MIC [3, 15]: 15 µg/mL (≈ 39.8 µM)
- MIC [4]: 8 ± 0.6 µg/mL (≈ 21.3 µM)
- MBC ([4]; Bacillus cereus): 15 ± 9 µg/mL (≈ 39.8 µM)
- MIC ([4]; Bacillus cereus, read-out: MIC): 8 µg/mL (≈ 21.3 µM)
- MBC [5]: 60 ± 6 µg/mL (≈ 159 µM)
- MIC [5]: 30 ± 10 µg/mL (≈ 79.7 µM)
- MIC [6]: 15 ± 9 µg/mL (≈ 39.8 µM)
- MBC ([6]; Escherichia coli, ATCC35210): 30 ± 10 µg/mL (≈ 79.7 µM)
- MIC [6, 16]: 15 µg/mL (≈ 39.8 µM)
- MBC [7]: 15 ± 9 µg/mL (≈ 39.8 µM)
- MIC [7]: 8 ± 0.6 µg/mL (≈ 21.3 µM)
- MIC (A. ochraceus): 8 ± 0.6 µg/mL (≈ 21.3 µM)
- MFC (A. ochraceus; Aspergillus ochraceus): 15 ± 3 µg/mL (≈ 39.8 µM)
- MIC (A. ochraceus; [17]): 8 µg/mL (≈ 21.3 µM)
- MIC [8]: 8 ± 0.6 µg/mL (≈ 21.3 µM)
- MFC ([8]; Trichoderma viride, IAM5061): 15 ± 3 µg/mL (≈ 39.8 µM)
- MIC [8, 18]: 8 µg/mL (≈ 21.3 µM)
- MFC [9]: 30 ± 10 µg/mL (≈ 79.7 µM)
- MIC [9]: 15 ± 3 µg/mL (≈ 39.8 µM)
- MFC (P. ochrochloron): 30 ± 10 µg/mL (≈ 79.7 µM)
- MIC (P. ochrochloron): 15 ± 3 µg/mL (≈ 39.8 µM)
- MFC [10]: 30 ± 10 µg/mL (≈ 79.7 µM)
- MIC [10]: 15 ± 3 µg/mL (≈ 39.8 µM)
- MFC [11]: 120 ± 40 µg/mL (≈ 319 µM)
- MIC [11]: 60 ± 6 µg/mL (≈ 159 µM)
- MFC [12]: 30 ± 10 µg/mL (≈ 79.7 µM)
- MIC [12]: 15 ± 3 µg/mL (≈ 39.8 µM)
- melting point: 292 to 294 °C
- viability at 48 h, 1 µM (in vitro): 91%
- viability at 48 h, 10 µM (in vitro): 91%

Structure (SMILES): COC(=O)c1[nH]c2ccc(F)cc2c1/C=C1\SC(=S)N(N2CCOCC2)C1=O [Compound 16, (Z)-methyl 5-fluoro-3-((3-morpholino-4-oxo-2-thioxothiazolidin-5-ylidene)methyl)-1H-indole-2-carboxylate]
- MFC [1]: 30 ± 10 µg/mL (≈ 71.2 µM)
- MIC [1]: 15 ± 3 µg/mL (≈ 35.6 µM)
- MBC ([2]; Enterobacter cloacae): 60 ± 6 µg/mL (≈ 142 µM)
- MIC [2, 13]: 45 ± 3 µg/mL (≈ 107 µM)
- MBC (P. aeruginosa; Pseudomonas aeruginosa): 60 ± 6 µg/mL (≈ 142 µM)
- MIC (P. aeruginosa; [14]): 30 ± 10 µg/mL (≈ 71.2 µM)
- MBC (M. flavus): 60 ± 6 µg/mL (≈ 142 µM)
- MIC (M. flavus): 45 ± 3 µg/mL (≈ 107 µM)
- MBC ([3]; Salmonella enterica): 60 ± 6 µg/mL (≈ 142 µM)
- MIC [3, 15]: 45 ± 3 µg/mL (≈ 107 µM)
- MBC ([4]; Bacillus cereus): 30 ± 10 µg/mL (≈ 71.2 µM)
- MIC ([4]; Bacillus cereus, read-out: MIC): 15 ± 9 µg/mL (≈ 35.6 µM)
- MBC [5]: 60 ± 6 µg/mL (≈ 142 µM)
- MIC [5]: 45 ± 3 µg/mL (≈ 107 µM)
- MBC ([6]; Escherichia coli, ATCC35210): 60 ± 6 µg/mL (≈ 142 µM)
- MIC [6, 16]: 30 ± 10 µg/mL (≈ 71.2 µM)
- MBC [7]: 30 ± 10 µg/mL (≈ 71.2 µM)
- MIC [7]: 22 ± 5 µg/mL (≈ 52.2 µM)
- MFC (A. ochraceus; Aspergillus ochraceus): 30 ± 10 µg/mL (≈ 71.2 µM)
- MIC (A. ochraceus; [17]): 15 ± 3 µg/mL (≈ 35.6 µM)
- MIC [8]: 8 ± 0.6 µg/mL (≈ 19 µM)
- MFC ([8]; Trichoderma viride, IAM5061): 15 ± 3 µg/mL (≈ 35.6 µM)
- MIC [8, 18]: 8 µg/mL (≈ 19 µM)
- MFC [9]: 30 ± 10 µg/mL (≈ 71.2 µM)
- MIC [9]: 15 ± 3 µg/mL (≈ 35.6 µM)
- MFC (P. ochrochloron): 30 ± 10 µg/mL (≈ 71.2 µM)
- MIC (P. ochrochloron): 15 ± 3 µg/mL (≈ 35.6 µM)
- MFC [10]: 30 ± 10 µg/mL (≈ 71.2 µM)
- MIC [10]: 15 ± 3 µg/mL (≈ 35.6 µM)
- MFC [11]: 30 ± 10 µg/mL (≈ 71.2 µM)
- MIC [11]: 15 ± 3 µg/mL (≈ 35.6 µM)
- MFC [12]: 30 ± 10 µg/mL (≈ 71.2 µM)
- MIC [12]: 15 ± 3 µg/mL (≈ 35.6 µM)
- melting point: 273 to 274 °C
